From patent publication US7247306B2, “Bacteria strain and bacteriocin produced therefrom” (Universite Laval, priority 2004, dated 2007)
Marks after values point to notes of the source that are not given here.

Legend:
Assay type in all cases: cell-based
Escherichia coli = experiment: Agar diffusion method, spectrum of activity; design: key to Sensitivity to divergicin M35: +, inhibition;; −, no inhibition
Procedure: (§1) Bacteria stocks were maintained as 20% glycerol stock, at −80° C., for further use. Carnobacterium sp. and Lactococcus sp. strains were cultivated in MRS broth comprising 0.1% (vol/vol) Tween 80® in aerobic condition at 30° C., as currently known in the art. Listeria monocytogenes and Escherichia coli were grown in tryptic soy broth (TSB), supplemented with 0.6% (wt/vol) yeast extract in aerobic conditions, at 37° C., while Listeria innocua and L. ivanovii were re-cultivated in TSB with yeast extract and incubated aerobically at 30° C. Streptococcus thermophilus, Propionibacterium sp. and pediococci were activated in MRS broth at 37° C. under aerobic condition. All lactobacilli and bifidobacteria were grown in MRS broth supplemented with 0.05% (wt/vol) L-cysteine-hydrochloride and incubated anaerobically in Oxoid jars using an atmosphere generation system, at 37° C. In prior experiments, bacteria strains were sub-cultured at least three times (1%, vol/vol) in respective media at 24 h intervals.
(§2) The antibacterial activity of bacteriocin produced by C. divergens M35 was tested toward a variety of bacteria species, listed in Table 1, and belonging to genus Listeria, Lactobacillus, Streptococcus, Lactococcus, Propionibacterium and Escherichia, and was evaluated following the agar diffusion method, as is well known to those skilled in the art.

L. innocua = experiment: Agar diffusion method, spectrum of activity; design: key to Sensitivity to divergicin M35: +, inhibition;; −, no inhibition; settings: strain HPB13
Procedure: as §1, §2

L. murayi = experiment: Agar diffusion method, spectrum of activity; design: key to Sensitivity to divergicin M35: +, inhibition;; −, no inhibition; settings: strain LSD 14
Procedure: as §1, §2

L. welshimeri = experiment: Agar diffusion method, spectrum of activity; design: key to Sensitivity to divergicin M35: +, inhibition;; −, no inhibition; settings: strain LSD 12
Procedure: as §1, §2

Listeria monocytogenes = experiment: Agar diffusion method, spectrum of activity; design: key to Sensitivity to divergicin M35: +, inhibition;; −, no inhibition
Procedure: as §1, §2

L. innocua HPB13 = experiment: Bacteriocin activity during growth of C. divergens M35 in MRS broth, critical-dilution micromethod; settings: 30° C.
Procedure: Protein concentration was determined as known in the art. Two-fold serial dilutions of 125 μl of tested sample were transferred into wells with a flat bottom microtest™ polystyrene microplate (96-well microtest, Becton Dickinson Labware, Franklin Lakes, N.J., USA), previously filled with 125 μl tryptic soy broth supplemented with 0.6% yeast extract (wt/vol). Each well was inoculated with 50 μl of 1000-fold diluted overnight culture of L. innocua HPB13 (final concentration of approximately 10^6 cfu/ml) and incubated at 30° C. for 18 h. Optical densities (650 nm) were then measured using a Thermo-max molecular device spectrophotometer (OPTI-Resources Inc., Quebec, PQ, Canada). The bacteriocin activity, expressed in arbitrary units per milliliter (AU/ml), was defined as the highest bacteriocin dilution showing complete inhibition of the indicator strain (optical density equals to that in un-inoculated media).
A C. divergens M35 culture were diluted (1% vol/vol) in peptone water (0.1%), plated on MRS agar supplemented with 0.1% vol/vol Tween 80® and incubated aerobically at 30° C. for 24 h. Bacterial viable counts, bacteriocin activity and pH were determined at 2 h intervals. Bacteriocin activity was determined according to the critical-dilution micromethod described hereinabove, using 5 ml of culture supernatant, separated by centrifugation and heated at 100° C.

Substance: divergicin M35: class IIa bacteriocin of 43 amino acids, 4518 Da, produced by Carnobacterium divergens strain M35 (SEQ ID NO: 1) (TKYYGNGVYCNSKKCWVDWGTAQGCIDVVIGQLGGGIPGKGKC; listed as Carnobacterium divergens)
- Sensitivity to divergicin M35 (Escherichia coli; Escherichia coli 22): −
- Sensitivity to divergicin M35 (Escherichia coli; Escherichia coli 43): −
- effect on Gram-negative strains (in words) (Escherichia coli; Escherichia coli strains tested): not affected
- Diameter of inhibition zone (mm) (L. innocua): 21 ± 0.5 mm
- Sensitivity to divergicin M35 (L. innocua): +
- Diameter of inhibition zone (mm) (L. murayi): 17.5 ± 1 mm
- Sensitivity to divergicin M35 (L. murayi): +
- Diameter of inhibition zone (mm) (L. welshimeri): 20 ± 0.5 mm
- Sensitivity to divergicin M35 (L. welshimeri): +
- time the antibacterial activity (diameter of the inhibition zone) remained stable (Listeria monocytogenes; in every case (sensitive Listeria strains)): ≥ 36 h
- number of strains sensitive to divergicin M35 (Listeria monocytogenes; of the 24 tested strains of L. monocytogenes): 22
- Sensitivity to divergicin M35 (Listeria monocytogenes; strain ATCC 19111): +
- Sensitivity to divergicin M35 (Listeria monocytogenes; strain ATCC 19112): +
- Sensitivity to divergicin M35 (Listeria monocytogenes; strain ATCC 19114): +
- Sensitivity to divergicin M35 (Listeria monocytogenes; strain ATCC 19115): +
- Sensitivity to divergicin M35 (Listeria monocytogenes; strain ATCC 35152): +
- Sensitivity to divergicin M35 (Listeria monocytogenes; strain LSD 15): −
- sensitivity to divergicin M35 (in words) (Listeria monocytogenes; strain LSD 15): resistant
- Diameter of inhibition zone (mm) (Listeria monocytogenes; strain LSD 332): 18.5 ± 1 mm
- Sensitivity to divergicin M35 (Listeria monocytogenes; strain LSD 332): +
- Diameter of inhibition zone (mm) (Listeria monocytogenes; strain LSD 336): 16.5 ± 0.5 mm
- Sensitivity to divergicin M35 (Listeria monocytogenes; strain LSD 336): +
- Diameter of inhibition zone (mm) (Listeria monocytogenes; strain LSD 338): 18.0 ± 0.5 mm
- Sensitivity to divergicin M35 (Listeria monocytogenes; strain LSD 338): +
- Diameter of inhibition zone (mm) (Listeria monocytogenes; strain LSD 339): 19.0 ± 0.5 mm
- Sensitivity to divergicin M35 (Listeria monocytogenes; strain LSD 339): +
- Diameter of inhibition zone (mm) (Listeria monocytogenes; strain LSD 340): 17.0 ± 0.5 mm
- Sensitivity to divergicin M35 (Listeria monocytogenes; strain LSD 340): +
- Diameter of inhibition zone (mm) (Listeria monocytogenes; strain LSD 341): 13.0 ± 0.5 mm
- Sensitivity to divergicin M35 (Listeria monocytogenes; strain LSD 341): +
- Diameter of inhibition zone (mm) (Listeria monocytogenes; strain LSD 346): 17.5 ± 1 mm
- Sensitivity to divergicin M35 (Listeria monocytogenes; strain LSD 346): +
- Diameter of inhibition zone (mm) (Listeria monocytogenes; strain LSD 348): 17.5 ± 1 mm
- Sensitivity to divergicin M35 (Listeria monocytogenes; strain LSD 348): +
- Diameter of inhibition zone (mm) (Listeria monocytogenes; strain LSD 523): 10 ± 1^b mm
- Sensitivity to divergicin M35 (Listeria monocytogenes; strain LSD 523): +
- Diameter of inhibition zone (mm) (Listeria monocytogenes; strain LSD 524): 22.0 ± 1^b mm
- Sensitivity to divergicin M35 (Listeria monocytogenes; strain LSD 524): +
- Sensitivity to divergicin M35 (Listeria monocytogenes; strain LSD 525): −
- sensitivity to divergicin M35 (in words) (Listeria monocytogenes; strain LSD 525): resistant
- Diameter of inhibition zone (mm) (Listeria monocytogenes; strain LSD 526): 21.0 ± 1 mm
- Sensitivity to divergicin M35 (Listeria monocytogenes; strain LSD 526): +
- Diameter of inhibition zone (mm) (Listeria monocytogenes; strain LSD 529): 14.5 ± 0.5 mm
- Sensitivity to divergicin M35 (Listeria monocytogenes; strain LSD 529): +
- Diameter of inhibition zone (mm) (Listeria monocytogenes; strain LSD 530): 19.0 ± 1 mm
- Sensitivity to divergicin M35 (Listeria monocytogenes; strain LSD 530): +
- Diameter of inhibition zone (mm) (Listeria monocytogenes; strain LSD 531): 18.5 ± 1 mm
- Sensitivity to divergicin M35 (Listeria monocytogenes; strain LSD 531): +
- Diameter of inhibition zone (mm) (Listeria monocytogenes; strain LSD 532): 20.0 ± 0.5^b mm
- Sensitivity to divergicin M35 (Listeria monocytogenes; strain LSD 532): +
- Diameter of inhibition zone (mm) (Listeria monocytogenes; strain LSD 535): 19.0 ± 0.5 mm
- Sensitivity to divergicin M35 (Listeria monocytogenes; strain LSD 535): +
- Diameter of inhibition zone (mm) (Listeria monocytogenes; strain LSD 538): 20.0 ± 0.5 mm
- Sensitivity to divergicin M35 (Listeria monocytogenes; strain LSD 538): +
- biological activity of divergicin M35 in culture (L. innocua HPB13; after 10 h of growth): approximately 18000 AU/ml
- biological activity of divergicin M35 in culture, maximum (L. innocua HPB13; after 14 h of growth): 65000 AU/ml
